# Laboratory results from patent US10966426B2, “Herbicidal compositions comprising phenylpyrimidines” (BASF SE, priority 2016, dated 2021).
# Values joined by “and” are separate entries in the source; they are usually repeats but may differ in a detail not shown here. Equal entries are not always repeated.
# Columns and labels:
# Assay type in all cases: in vivo
# Brachiaria decumbens = experiment: greenhouse pre-emergence treatment, BRADC
# Procedure, shortened: (§1)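 Pre-emergence spray of compounds, alone or as combinations formulated as 10% emulsion concentrate in water, directly after sowing in loamy sand (~3.0% humus); pots hooded until rooting, kept at 10-25° C or 20-35° C per species for 2 to 4 weeks. Damage scored 0-100 (100 = no emergence/complete destruction); Colby expected value E=X+Y−(X·Y/100).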
# Apera spica-venti [1] = experiment: greenhouse pre-emergence treatment, APESV
# Procedure, shortened: as §1
# Ambrosia elatior = experiment: greenhouse pre-emergence treatment, AMBEL
# Procedure, shortened: as §1
# Papaver rhoeas = experiment: greenhouse post-emergence treatment, PAPRH
# Procedure, shortened: (§2)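 Post-emergence greenhouse spray on 3–15 cm plants, sown direct or transplanted a few days before treatment. Scored visually on a 0–100 scale after 2 to 4 weeks; expected additive effect computed by Colby: E=X+Y−(X·Y/100).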
# Galium aparine = experiment: greenhouse post-emergence treatment, GALAP
# Procedure, shortened: as §2
# Apera spica-venti [2] = experiment: greenhouse post-emergence treatment, APESV
# Procedure, shortened: as §2
# Polygonum aviculare = experiment: greenhouse post-emergence treatment, POLAV
# Procedure, shortened: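 Visual herbicidal effect (0–100) recorded over a 2 to 4 week test period after foliar treatment at plant heights of 3 to 15 cm. Expected combination effects derived by the Colby formula from single-component effects X and Y.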
# [3] = 20 DAT, Ex. 26 solo 31.25 gai/ha
# [4] = 20 DAT, Ex. 26 solo 62.5 gai/ha
smiles,measurement,setting,value
COC(=O)c1nc(C2CC2)ncc1-c1ccc(F)cc1Cl [Ex. 26],% activity,"Brachiaria decumbens; 20 DAT, BRADC, Ex. 26 solo 125 gai/ha",50%
same,% activity,Brachiaria decumbens; [3],0%
same,% activity,Brachiaria decumbens; [4],0%
same,% activity,"Brachiaria decumbens; 20 DAT, Ex. 26 solo 125 gai/ha",20%
same,% activity,"Brachiaria decumbens; 21 DAT, BRADC, Ex. 26 solo 125 gai/ha",10%
same,% activity,"Brachiaria decumbens; 21 DAT, BRADC, Ex. 26 solo 250 gai/ha",30%
same,% activity,"Brachiaria decumbens; BRADC, Ex. 26 solo 31.25 gai/ha, 20 DAT",0%
same,% activity,"Brachiaria decumbens; BRADC, Ex. 26 solo 62.5 gai/ha, 20 DAT",0%
same,% activity,"Brachiaria decumbens; BRADC, Ex. 26 solo 125 gai/ha, 20 DAT",20% and 30%
same,% activity,"Brachiaria decumbens; BRADC, Ex. 26 solo 250 gai/ha, 20 DAT",65%
same,% activity,"Brachiaria decumbens; Ex. 26 solo 62.5 gai/ha, 20 DAT, BRADC",20%
same,% activity,"Brachiaria decumbens; Ex. 26 solo 125 gai/ha, 20 DAT, BRADC",0%
same,% activity,"Brachiaria decumbens; Ex. 26 solo, 31.25 gai/ha, 20 DAT, BRADC",0%
same,% activity,"Brachiaria decumbens; Ex. 26 solo, 62.5 gai/ha, 20 DAT, BRADC",0%
same,% activity,"Brachiaria decumbens; Ex. 26 solo, 125 gai/ha, 20 DAT, BRADC",0%
same,% activity,"Apera spica-venti [1]; 20 DAT, Ex. 26 solo 125 gai/ha",90%
same,% activity,"Apera spica-venti [1]; 20 DAT, solo Ex. 26 125 gai/ha",75%
same,% activity,"Apera spica-venti [1]; 20 DAT, solo Ex. 26 125 gai/ha (Table X68)",70%
same,% activity,"Apera spica-venti [1]; Ex. 26 solo 125 gai/ha, 20 DAT",65%
same,% activity,"Apera spica-venti [1]; Ex. 26 solo, 125 gai/ha, 20 DAT",70%
same,% activity,"Ambrosia elatior; 20 DAT, AMBEL, Ex. 26 solo 31.25 gai/ha",0%
same,% activity,"Ambrosia elatior; 20 DAT, AMBEL, Ex. 26 solo 62.5 gai/ha",0%
same,% activity,"Ambrosia elatior; 20 DAT, AMBEL, Ex. 26 solo 125 gai/ha",0%
same,% activity,"Ambrosia elatior; 20 DAT, AMBEL, Ex. 26 solo 250 gai/ha",0%
same,% activity,Ambrosia elatior; [3],0%
same,% activity,Ambrosia elatior; [4],0%
same,% activity,"Ambrosia elatior; 20 DAT, Ex. 26 solo 125 gai/ha",0%
same,% activity,"Ambrosia elatior; 21 DAT, AMBEL, Ex. 26 solo 250 gai/ha",0%
same,% activity,"Ambrosia elatior; AMBEL, 20 DAT, solo Ex. 26 62.5 gai/ha",0%
same,% activity,"Ambrosia elatior; AMBEL, 20 DAT, solo Ex. 26 125 gai/ha",0%
same,% activity,"Ambrosia elatior; AMBEL, Ex. 26 solo 31.25 gai/ha, 20 DAT",0%
same,% activity,"Ambrosia elatior; AMBEL, Ex. 26 solo 62.5 gai/ha, 20 DAT",0%
same,% activity,"Ambrosia elatior; AMBEL, Ex. 26 solo 125 gai/ha, 20 DAT",0%
same,% activity,"Ambrosia elatior; Ex. 26 solo 250 gai/ha, 21 DAT, AMBEL",0%
same,% activity,"Ambrosia elatior; Ex. 26 solo, 31.25 gai/ha, 20 DAT, AMBEL",0%
same,% activity,"Ambrosia elatior; Ex. 26 solo, 62.5 gai/ha, 20 DAT, AMBEL",0%
same,% activity,"Ambrosia elatior; Ex. 26 solo, 125 gai/ha, 20 DAT, AMBEL",0%
same,% activity,Papaver rhoeas; [4],0%
same,% activity,"Papaver rhoeas; 20 DAT, Ex. 26 solo 125 gai/ha",0%
same,% activity,"Papaver rhoeas; 20 DAT, Ex. 26 solo 250 gai/ha",0%
same,% activity,"Papaver rhoeas; 20 DAT, PAPRH, Ex. 26 solo 125 gai/ha",0%
same,% activity,"Papaver rhoeas; 20 DAT, PAPRH, Ex. 26 solo 250 gai/ha",20%
same,% activity,"Papaver rhoeas; 21 DAT, Ex. 26 solo 125 gai/ha",0%
same,% activity,"Papaver rhoeas; 21 DAT, Ex. 26 solo 250 gai/ha",0%
same,% activity,"Papaver rhoeas; Ex. 26 solo 62.5 gai/ha, 20 DAT, PAPRH (pyridate table)",0%
same,% activity,"Papaver rhoeas; Ex. 26 solo 62.5 gai/ha, 20 DAT, PAPRH (pyroxsulam table)",0%
same,% activity,"Papaver rhoeas; Ex. 26 solo 62.5 gai/ha, 21 DAT, PAPRH",0%
same,% activity,"Papaver rhoeas; Ex. 26 solo 125 gai/ha, 20 DAT, PAPRH (pyridate table)",0%
same,% activity,"Papaver rhoeas; Ex. 26 solo 125 gai/ha, 20 DAT, PAPRH (pyroxsulam table)",0%
same,% activity,"Papaver rhoeas; Ex. 26 solo 250 gai/ha, 20 DAT, PAPRH (pyridate table)",45%
same,% activity,"Papaver rhoeas; Ex. 26 solo 250 gai/ha, 20 DAT, PAPRH (pyroxsulam table)",0%
same,% activity,"Papaver rhoeas; Ex. 26 solo 250 gai/ha, 21 DAT, PAPRH",0%
same,% activity,"Papaver rhoeas; Ex. 26 solo, 125 gai/ha, 21 DAT, PAPRH",0%
same,% activity,"Papaver rhoeas; Ex. 26 solo, 250 gai/ha, 21 DAT, PAPRH",15%
same,% activity,"Papaver rhoeas; PAPRH, Ex. 26 solo 62.5 gai/ha, 20 DAT",0%
same,% activity,"Papaver rhoeas; PAPRH, Ex. 26 solo 125 gai/ha, 20 DAT",0%
same,% activity,"Galium aparine; 20 DAT, Ex. 26 solo 125 gai/ha",0%
same,% activity,"Galium aparine; 20 DAT, GALAP, Ex. 26 solo 62.5 gai/ha",0%
same,% activity,"Galium aparine; 20 DAT, GALAP, Ex. 26 solo 125 gai/ha",0%
same,% activity,"Galium aparine; 20 DAT, GALAP, Ex. 26 solo 250 gai/ha",0%
same,% activity,"Galium aparine; Ex. 26 solo 62.5 gai/ha, 20 DAT, GALAP (pyridate table)",0%
same,% activity,"Galium aparine; Ex. 26 solo 62.5 gai/ha, 20 DAT, GALAP (pyroxsulam table)",0%
same,% activity,"Galium aparine; Ex. 26 solo 125 gai/ha, 20 DAT, GALAP (pyridate table)",0%
same,% activity,"Galium aparine; Ex. 26 solo 125 gai/ha, 20 DAT, GALAP (pyroxsulam table)",0%
same,% activity,"Galium aparine; Ex. 26 solo 125 gai/ha, 21 DAT, GALAP",0%
same,% activity,"Galium aparine; Ex. 26 solo 250 gai/ha, 20 DAT, GALAP (pyridate table)",0%
same,% activity,"Galium aparine; Ex. 26 solo 250 gai/ha, 20 DAT, GALAP (pyroxsulam table)",30%
same,% activity,"Galium aparine; Ex. 26 solo 250 gai/ha, 21 DAT, GALAP",0%
same,% activity,"Galium aparine; GALAP, 21 DAT, solo Ex. 26 250 gai/ha",25%
same,% activity,"Galium aparine; GALAP, Ex. 26 solo 125 gai/ha, 20 DAT",0%
same,% activity,"Galium aparine; GALAP, Ex. 26 solo 250 gai/ha, 20 DAT",0%
same,% activity,"Apera spica-venti [2]; 20 DAT, APESV, Ex. 26 solo 62.5 gai/ha",70%
same,% activity,"Apera spica-venti [2]; 20 DAT, APESV, Ex. 26 solo 125 gai/ha",75%
same,% activity,"Apera spica-venti [2]; 20 DAT, APESV, Ex. 26 solo 250 gai/ha",80%
same,% activity,"Apera spica-venti [2]; 21 DAT, Ex. 26 solo 125 gai/ha",65%
same,% activity,"Apera spica-venti [2]; 21 DAT, Ex. 26 solo 250 gai/ha",75%
same,% activity,"Apera spica-venti [2]; APESV, Ex. 26 solo 125 gai/ha, 20 DAT",75% and 70%
same,% activity,"Apera spica-venti [2]; APESV, Ex. 26 solo 250 gai/ha, 20 DAT",75%
same,% activity,"Apera spica-venti [2]; Ex. 26 solo 62.5 gai/ha, 20 DAT, APESV",60%
same,% activity,"Apera spica-venti [2]; Ex. 26 solo 125 gai/ha, 20 DAT, APESV",70%
same,% activity,"Apera spica-venti [2]; Ex. 26 solo 250 gai/ha, 20 DAT, APESV",75%
same,% activity,Polygonum aviculare; [4],75%
same,% activity,"Polygonum aviculare; 20 DAT, Ex. 26 solo 125 gai/ha",85%
same,% activity,"Polygonum aviculare; Ex. 26 solo 62.5 gai/ha, 20 DAT, POLAV",85%
same,% activity,"Polygonum aviculare; Ex. 26 solo 125 gai/ha, 20 DAT, POLAV",90%
same,% activity,"Polygonum aviculare; Ex. 26 solo, 125 gai/ha, 20 DAT, POLAV",85%
same,% activity,"Polygonum aviculare; POLAV, 21 DAT, solo Ex. 26 125 gai/ha",90%
